The source of these data is PubChem BioAssay AID256 (DTP/NCI, 2004).

Structures are written as SMILES. “And” between values parts separate entries of the source, which are not always exact repeats. Identical values can stand only once. Toxic doses and inconclusive results are not listed.

In this assay the test system is CD2F1 mice, L1210 leukemia ip, survival T/C. Briefly: NCI In Vivo Anticancer Drug Screen. Data for tumor model L1210 Leukemia (intraperitoneal) in CD2F1 (CDF1) mice. The settings on record: higher = longer survival. An outline of the steps: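 Implant tumor; dose compound or vehicle; measure endpoint in both groups; report treated divided by control.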
Where [1] appears, read: endpoint: mean survival time, dose: 25.0 mg/kg/injection, schedule: Q04DX002 (ip), vehicle: saline with Tween-80.
Where [2] appears, read: endpoint: mean survival time, dose: 100.0 mg/kg/injection, schedule: Q01DX009 (ip), vehicle: saline with Tween-80.
The mark [3] stands for this setting: endpoint: mean survival time, dose: 200.0 mg/kg/injection, schedule: Q01DX009 (ip), vehicle: saline with Tween-80.
[4] abbreviates: endpoint: mean survival time, dose: 6.25 mg/kg/injection, schedule: Q01DX009 (ip), vehicle: saline with Tween-80.
[5] abbreviates: endpoint: mean survival time, dose: 200.0 mg/kg/injection, schedule: Q01DX001 (ip), vehicle: saline.
[6] abbreviates: endpoint: mean survival time, dose: 400.0 mg/kg/injection, schedule: Q01DX001 (ip), vehicle: saline.
The mark [7] stands for this setting: endpoint: mean survival time, dose: 100.0 mg/kg/injection, schedule: Q04DX003 (ip), vehicle: saline with Tween-80.
[8] abbreviates: endpoint: mean survival time, dose: 200.0 mg/kg/injection, schedule: Q04DX003 (ip), vehicle: saline with Tween-80.
The mark [9] stands for this setting: endpoint: mean survival time, dose: 400.0 mg/kg/injection, schedule: Q04DX003 (ip), vehicle: saline with Tween-80.

Take `CC(C)OC(=S)S.[Pt]`: the T/C runs as follows: (endpoint: mean survival time, dose: 11.3 mg/kg/injection, schedule: Q04DX003 (ip), vehicle: saline with Tween-80) 89 % of control; (endpoint: mean survival time, dose: 22.5 mg/kg/injection, schedule: Q04DX003 (ip), vehicle: saline with Tween-80) 97 % of control; (endpoint: mean survival time, dose: 45.0 mg/kg/injection, schedule: Q04DX003 (ip), vehicle: saline with Tween-80) 101 % of control; (endpoint: mean survival time, dose: 90.0 mg/kg/injection, schedule: Q04DX003 (ip), vehicle: saline with Tween-80) 97 % of control; (endpoint: mean survival time, dose: 180.0 mg/kg/injection, schedule: Q04DX003 (ip), vehicle: saline with Tween-80) 95 % of control.
As to `CC1(C)CCC23CCC4(C)C(CCC5C6(C)CCC(O)C(C)(C)C6CCC54C)C2C1OC3=O` (stereo unspecified), the T/C reads like this: (endpoint: mean survival time, dose: 6.25 mg/kg/injection, schedule: Q04DX002 (ip), vehicle: saline with Tween-80) 100 % of control; (endpoint: mean survival time, dose: 12.5 mg/kg/injection, schedule: Q04DX002 (ip), vehicle: saline with Tween-80) 103 % of control; under setting [1], 88 % of control and 103 % of control.
Regarding `CC1=C/C(=N/NC(N)=O)CC(C)C1` (stereo unspecified), the T/C runs as follows: under setting [2], 91 % of control; under setting [3], 97 % of control; (endpoint: mean survival time, dose: 400.0 mg/kg/injection, schedule: Q01DX009 (ip), vehicle: saline with Tween-80) 98 % of control.
Consider `C=C[CH2][Sn]([Br])([c]1ccccc1)[c]1ccccc1`, for which the T/C runs as follows: under setting [4], 94 % of control; under setting [1], 89 % of control.
As for `CCOP(=S)(N=C=S)OCC`, the T/C is 98 % of control under setting [1] and 90 % of control (endpoint: mean survival time, dose: 50.0 mg/kg/injection, schedule: Q04DX002 (ip), vehicle: saline with Tween-80).
As for `CCCCOc1ccc(Cl)cc1`, the T/C is 90 % of control (endpoint: mean survival time, dose: 100.0 mg/kg/injection, schedule: Q04DX002 (ip), vehicle: saline with Tween-80) and 87 % of control (endpoint: mean survival time, dose: 200.0 mg/kg/injection, schedule: Q04DX002 (ip), vehicle: saline with Tween-80).
Regarding `Fc1ccccc1OCC1CO1` (stereo unspecified), the T/C was 114 % of control (endpoint: mean survival time, dose: 100.0 mg/kg/injection, schedule: Q01DX001 (ip), vehicle: saline); 110 % of control under setting [5]; 108 % of control under setting [6].
Turning to `OC1c2ccccc2-c2ccc(Cl)cc21` (stereo unspecified), the T/C reads like this: under setting [7], 94 % of control; under setting [8], 86 % of control; under setting [9], 96 % of control.
With `Cc1cccc(C)c1NC(=S)N1CCC(CCCC2CCN(C(=S)Nc3c(C)cccc3C)CC2)CC1`, the T/C reads like this: under setting [7], 105 % of control; under setting [8], 96 % of control; under setting [9], 96 % of control.
In the case of `COC1OCC(O)C(NC(=O)N(C)N=O)C1O` (stereo unspecified), the T/C reads like this: (endpoint: mean survival time, dose: 50.0 mg/kg/injection, schedule: Q01DX009 (ip), vehicle: saline) 160 % of control; (endpoint: mean survival time, dose: 75.0 mg/kg/injection, schedule: Q01DX009 (ip), vehicle: saline) 186 % of control.
With `COC(=O)C1C2CCCN2OC1(C)CO` (stereo unspecified), the T/C (endpoint: median survival time, dose: 7.5 mg/kg/injection, schedule: Q01DX005 (ip), vehicle: saline) was 98 % of control; the T/C (endpoint: median survival time, dose: 15.0 mg/kg/injection, schedule: Q01DX005 (ip), vehicle: saline) was 101 % of control; the T/C (endpoint: median survival time, dose: 30.0 mg/kg/injection, schedule: Q01DX005 (ip), vehicle: saline) was 96 % of control; the T/C (endpoint: median survival time, dose: 60.0 mg/kg/injection, schedule: Q01DX005 (ip), vehicle: saline) is 106 % of control; the T/C (endpoint: median survival time, dose: 120.0 mg/kg/injection, schedule: Q01DX005 (ip), vehicle: saline) is 104 % of control.
Consider `N#CC(Cl)(C#N)c1ccc(C(Cl)(C#N)C#N)cc1`, for which the T/C runs as follows: (endpoint: mean survival time, dose: 25.0 mg/kg/injection, schedule: Q01DX009 (ip), vehicle: saline with Tween-80) 101 % of control; (endpoint: mean survival time, dose: 50.0 mg/kg/injection, schedule: Q01DX009 (ip), vehicle: saline with Tween-80) 104 % of control; under setting [2], 98 % of control and 101 % of control.
Regarding `O=[N+]([O-])c1cc(C(F)(F)F)ccc1F`, the T/C was 110 % of control (endpoint: mean survival time, dose: 25.0 mg/kg/injection, schedule: Q04DX003 (ip), vehicle: saline with Tween-80); 98 % of control (endpoint: mean survival time, dose: 50.0 mg/kg/injection, schedule: Q04DX003 (ip), vehicle: saline with Tween-80); 105 % of control under setting [7].
On to `C(=NCCN1CCOCC1)=NC1CCCCC1`, for which the T/C is, setting by setting: (endpoint: mean survival time, dose: 3.13 mg/kg/injection, schedule: Q01DX009 (ip), vehicle: saline with Tween-80) 102 % of control; under setting [4], 91 % of control; (endpoint: mean survival time, dose: 6.25 mg/kg/injection, schedule: Q04DX003 (ip), vehicle: saline with Tween-80) 100 % of control; (endpoint: mean survival time, dose: 12.5 mg/kg/injection, schedule: Q01DX009 (ip), vehicle: saline with Tween-80) 104 % of control; (endpoint: mean survival time, dose: 12.5 mg/kg/injection, schedule: Q04DX003 (ip), vehicle: saline with Tween-80) 92 % of control.
Regarding `O=C(O)O`, the T/C is, setting by setting: under setting [5], 105 % of control; under setting [3], 107 % of control; under setting [6], 100 % of control.
Take `CC(C)=NNCCO`: the T/C (endpoint: mean survival time, dose: 6.25 mg/kg/injection, schedule: Q01DX009 (ip), vehicle: saline) is 93 % of control; the T/C (endpoint: mean survival time, dose: 12.5 mg/kg/injection, schedule: Q01DX009 (ip), vehicle: saline) was 95 % of control; the T/C (endpoint: mean survival time, dose: 25.0 mg/kg/injection, schedule: Q01DX009 (ip), vehicle: saline) was 104 % of control.
For `O=NN(CCCl)C(=O)NC1CCN(Cc2ccccc2)CC1`, the T/C is 123 % of control (endpoint: mean survival time, dose: 12.5 mg/kg/injection, schedule: Q01DX001 (ip), vehicle: saline with Tween-80); 271 % of control (endpoint: mean survival time, dose: 50.0 mg/kg/injection, schedule: Q01DX001 (ip), vehicle: saline with Tween-80); 379 % of control (endpoint: mean survival time, dose: 100.0 mg/kg/injection, schedule: Q01DX001 (ip), vehicle: saline with Tween-80).
Turning to `O=C1c2ccccc2C(=O)N1CCO`, the T/C under setting [7] is 106 % of control, the T/C under setting [8] was 108 % of control and the T/C under setting [9] is 110 % of control.
Take `Nc1nccc2c1nnn2C1OC(CO)C(O)C1O` (stereo unspecified): the T/C (endpoint: mean survival time, dose: 12.5 mg/kg/injection, schedule: Q01DX005 (ip), vehicle: water) is 102 % of control; the T/C (endpoint: mean survival time, dose: 25.0 mg/kg/injection, schedule: Q01DX005 (ip), vehicle: water) was 104 % of control; the T/C (endpoint: mean survival time, dose: 50.0 mg/kg/injection, schedule: Q01DX005 (ip), vehicle: water) was 96 % of control; the T/C (endpoint: mean survival time, dose: 100.0 mg/kg/injection, schedule: Q01DX005 (ip), vehicle: water) was 102 % of control; the T/C (endpoint: mean survival time, dose: 200.0 mg/kg/injection, schedule: Q01DX005 (ip), vehicle: water) is 106 % of control.
